pEC50: −log10 of the molar value. Converted amounts (≈) assume the structure as drawn. Where two headings read alike, the source gives them in different places.
Columns and labels:
S. aureus DSM2569 = test: MIC, standard microdilution assay, growing S. aureus; format: cell-based, Staphylococcus aureus; settings: Staphylococcus aureus, DSM2569; S. aureus; CA-MHB pH 7.4; read-out: MIC (μM) CA-MHB
In short: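 Each strain was exposed to serially diluted compound in broth, in triplicate. The media were TSB for Shigella; CA-MHB at pH 7.4 (HEPES 40 mM) for S. aureus, P. aeruginosa and UPEC; and, for UPEC only, low-pH LPM (pH 5.5, 30 mM MES).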

non-growing UPEC CFT073 [1] = test: Dilution-regrowth assay (screen, hit validation, dose-response) on stationary-phase UPEC; format: cell-based, Escherichia coli; settings: for pEC50: Escherichia coli, E. coli, regrowth delay of non-growing bacteria, 24 h treatment, OD600 6 h after 2500-fold dilution, read-out: EC50
In short: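 Regrowth (OD600 after 6 h, 37 °C) of diluted non-growing CFT073, following 24 h compound treatment of 24 h stationary cultures, defines activity relative to untreated control. Screen at 20 µM, validation at 20, 10, 5 µM (duplicates), dose–response in three biological replicates fitted by five-parameter logistic.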

[2] = test system: non-growing P. aeruginosa DSM1117; test: Dose-dependent killing analysis (CFU spot-plating) of stationary-phase P. aeruginosa; format: cell-based, Pseudomonas aeruginosa
Method: The cultures were grown and treated for 24 h in 1:4 CA-MHB (pH 7.4).
(§1) For survival analysis, bacteria were cultivated as described for the dose–response dilution-regrowth assay. Assays with UPEC were conducted at the CBCS screening facility using 96-well plates with a 200 μl sample volume, and compounds were dispensed using the Echo® (Labcyte) system. P. aeruginosa and S. aureus samples were treated according to the protocol used for the dilution-regrowth experiments. Treated samples were serially diluted 10-fold in PBS, and 10 μl drops were spot-plated onto rectangular LB agar plates using either a Beckman NXP robot (for UPEC) or an Integra VIAFLO96 electronic pipette (for P. aeruginosa and S. aureus). The LB agar plates were incubated overnight at 37 °C and scanned. Colonies were counted at the spots of the lowest dilution where individual colonies could be accurately distinguished. Each colony was manually marked on a separate image layer using the GNU Image Manipulation Program, and counted using NIST’s Integrated Colony Enumerator (NICE 1.4) software. The experiments were performed in three biological replicates.

non-growing UPEC CFT073 [3] = test: Dose-dependent killing analysis (CFU spot-plating) of stationary-phase UPEC; format: cell-based, Escherichia coli; settings: 24 h treatment of stationary phase culture
Method: To differentiate between these scenarios, we used CFU counting by agar plating to assess the bactericidal effect on non-growing bacteria. […] Conversely, if no significant reduction in CFU is observed, the regrowth delay is due to PAE without killing. […] Fluoroquinolones are known to cause PAE after treatment of growing bacterial cultures.
as §1

Compound: CC1Sc2c(C(=O)O)c(=O)c3cc(F)c(N4CCNCC4)cc3n21 (stereo not drawn) [Ulifloxacin]
- MIC (S. aureus DSM2569): 1 µM (≈ 0.349 µg/mL)
- pEC50 (non-growing UPEC CFT073 [1]; LPM pH 5.5): 5.06
- pEC50 (non-growing UPEC CFT073 [1]; pH 7.4, 1:4 CA-MHB): 6.34
- reduction of bacterial counts, stationary phase P. aeruginosa ([2]; at 0.5 µM, 24 h treatment): more than four
- reduction of bacterial counts, non-growing P. aeruginosa ([2]; at 2.5 µM, 1:4 CA-MHB pH 7.4, 24 h treatment): more than four

Compound: C=C[C@]1(C)C[C@@H](OC(=O)CSC(C)(C)CNC(=O)[C@H](N)C(C)C)[C@]2(C)[C@H](C)CC[C@]3(CCC(=O)[C@H]32)[C@@H](C)[C@@H]1O [Valnemulin]
- MIC (S. aureus DSM2569): 0.125 µM (≈ 0.0706 µg/mL)
- pEC50 (non-growing UPEC CFT073 [1]; pH 7.4, 1:4 CA-MHB): 6.43
- activity against non-growing UPEC in LPM (pH 5.5) compared to 1:4 CA-MHB (pH 7.4) (non-growing UPEC CFT073 [1]; regrowth delay and killing, Figs. 2 and 3): active at pH 7.4 and completely inactive in the acidic medium
- bactericidal activity against non-growing UPEC (CFU counting) (non-growing UPEC CFT073 [3]): not bactericidal
